Series [1] in a line: Storage of granules of different benzimidazole compounds with heavy magnesium carbonate or lactose, changes in appearance (Experimental Example 2). In kind it is physicochemical. On the set-up: key to Changes in appearance after 1 week at 50° C. and 75% RH: −: No changes; ++: Severely. The conditions noted are these: for Changes in appearance after 1 week at 50° C. and 75% RH: granules as in Example 5; for stability of the pharmaceutical compositions of the invention: granules with heavy magnesium carbonate, 50° C. and 75% RH, 1 week. The source says:
Granules were produced in the same manner as in Example 5 except that the compound (A), the compound (C), the compound (D), omeprazole or timoprazole was used instead of the compound (B). […] As a control to each composition, granules were also produced in the same manner except that lactose was used instead of heavy magnesium carbonate and stored under the same conditions.

The mark [2] stands for this setting: Control: lactose instead of heavy magnesium carbonate.
The mark [3] stands for this setting: Invention: additive heavy magnesium carbonate.

Broadly, the melting point is the temperature, or range, at which the solid turns liquid. `Cc1c(OCC(F)(F)C(F)(F)F)ccnc1C[S+]([O-])c1nc2ccccc2[nH]1` (stereo not shown) [Compound (A), 2-[[3-methyl-4-(2,2,3,3,3-pentafluoropropoxy)-2-pyridyl]methyl-sulfinyl]benzimidazole]: the melting point is 161 to 163 °C (dec.). Also, the “Changes in appearance after 1 week at 50° C. and 75% RH” value (from here on “Changes … at 50° C. and 75% RH”) in series [1] (setting [2]) is “++”. For the same compound, the “Changes … at 50° C. and 75% RH” value in series [1] (setting [3]) was “−”. For the same compound, the “stability of the pharmaceutical compositions of the invention” value (shortened to “stability”) in series [1] is reported as “stable”.

For the compound `COc1ccc2nc([S+]([O-])Cc3ncc(C)c(OC)c3C)[nH]c2c1` (stereo not shown) [Omeprazole, 5-Methoxy-2-[(4-methoxy-3,5-dimethyl-2-pyridyl)methylsulfinyl]benzimidazole], the results for the “Changes … at 50° C. and 75% RH” value in series [1] (setting [2]) and in series [1] (setting [3]) were “++” and “−”, respectively. Further, in series [1], the “stability” value is “stable”.

On to `[O-][S+](Cc1ccccn1)c1nc2ccccc2[nH]1` (stereo not shown) [Timoprazole, 2-[(2-Pyridyl)methylsulfinyl]benzimidazole], for which the “Changes … at 50° C. and 75% RH” value in series [1] (setting [2]) is listed as “++”; in series [1] (setting [3]), “−”. Further, the “stability” value in series [1] is “stable”.

(Values after patent publication US6749864B2, “Stabilized pharmaceutical composition” (Takeda Chemical Industries, Ltd., priority 1986, dated 2004).)
